Test results as given in patent publication US4220644A, “7-Acylamino-3-(substituted tetrazolyl thiomethyl) cephalosporins” (SmithKline Corporation, priority 1976, dated 1980).
Values after ≈ are worked out from the molar mass of the structure shown. Like-named read-outs stand apart in the source and are kept apart here.

How the values were obtained:
[1] = tested on: Entero. aerog. ATCC 13048; experiment: MIC in vitro (Table 1), Entero. aerog. ATCC 13048; format: cell-based
From the text: (§1) Compound names corresponding to numbers are given in the experimental section. For comparative purposes, data for cephamandole, which is 7-mandelamido-3-(1-methyltetrazol-5-ylthiomethyl)-3-cephem-4-carboxylic acid, is also given in Tables 1 and 2.

[2] = tested on: Kleb. pneumo. SK 1200; experiment: MIC in vitro (Table 1), Kleb. pneumo. SK 1200; format: cell-based
From the text: as §1

[3] = tested on: Kleb. pneumo. 4200; experiment: In vivo mouse protection (Table 2), Kleb. pneumo. 4200
From the text: as §1

[4] = tested on: E. coli 12140; experiment: In vivo mouse protection (Table 2), E. coli 12140
From the text: as §1

[5] = tested on: Salmonella ATCC 12176; experiment: MIC in vitro (Table 1), Salmonella ATCC 12176; format: cell-based; conditions: Salmonella, ATCC12176, in vitro, read-out: MIC
From the text: as §1, with “The compounds of Formula I have antibacterial activity against both Gram-positive and Gram-negative organisms. […] Compound” for “Compound”

[6] = tested on: Shigella HH 117; experiment: MIC in vitro (Table 1), Shigella HH 117; format: cell-based; conditions: Shigella, HH117, in vitro, read-out: MIC
From the text: as §1, with “The compounds of Formula I have antibacterial activity against both Gram-positive and Gram-negative organisms. […] Compound” for “Compound”

[7] = tested on: Serra. Marc. ATCC 13880; experiment: MIC in vitro (Table 1), Serra. Marc. ATCC 13880; format: cell-based
From the text: as §1

[8] = tested on: S. villaluz; experiment: MIC in vitro (Table 1), S. villaluz; format: cell-based; conditions: read-out: MIC
From the text: as §1, with “The compounds of Formula I have antibacterial activity against both Gram-positive and Gram-negative organisms. […] Compound” for “Compound”

[9] = tested on: E. coli HH 33779; experiment: MIC in vitro (Table 1), E. coli HH 33779; format: cell-based; conditions: Escherichia coli, HH33779, in vitro, E. coli HH 33779; read-out: MIC
From the text: as §1

[10] = tested on: S. aureus HH 127; experiment: MIC in vitro (Table 1), S. aureus HH 127; format: cell-based; conditions: Staphylococcus aureus
From the text: as §1

[11] = tested on: S. aureus SK 23390; experiment: MIC in vitro (Table 1), S. aureus SK 23390; format: cell-based; conditions: Staphylococcus aureus
From the text: as §1

[12] = tested on: Proteus morgani 179; experiment: MIC in vitro (Table 1), Proteus morgani 179; format: cell-based; conditions: read-out: MIC
From the text: as §1

[13] = tested on: E. coli SK 12140; experiment: MIC in vitro (Table 1), E. coli SK 12140; format: cell-based; conditions: Escherichia coli, SK12140, in vitro
From the text: as §1

[14] = tested on: Strep. Faecalis HH 34358; experiment: MIC in vitro (Table 1), Strep. Faecalis HH 34358; format: cell-based; conditions: Enterococcus faecalis
From the text: as §1

[15] = tested on: Entero. cloacae HH 31254; experiment: MIC in vitro (Table 1), Entero. cloacae HH 31254; format: cell-based; conditions: Enterobacter cloacae
From the text: as §1

[16] = tested on: Kleb. pneumo. SK 4200; experiment: MIC in vitro (Table 1), Kleb. pneumo. SK 4200; format: cell-based
From the text: as §1

[17] = tested on: Pseudo. sp. HH 63; experiment: MIC in vitro (Table 1), Pseudo. sp. HH 63; format: cell-based; conditions: in vitro, Pseudo. sp. HH 63; read-out: MIC
From the text: as §1, with “The compounds of Formula I have antibacterial activity against both Gram-positive and Gram-negative organisms. […] Compound” for “Compound”

[18] = Escherichia coli, 12140, po, E. coli 12140, p.o.
[19] = Escherichia coli, 12140, sc, E. coli 12140, s.c.
[20] = SK23390, in vitro, S. aureus SK 23390, read-out: MIC
[21] = in vitro, Strep. Faecalis HH 34358, read-out: MIC
[22] = in vitro, Kleb. pneumo. SK 4200, read-out: MIC
[23] = in vitro, Entero. aerog. ATCC 13048, read-out: MIC
[24] = in vitro, Serra. Marc. ATCC 13880, read-out: MIC
[25] = HH127, in vitro, S. aureus HH 127, read-out: MIC
[26] = HH31254, in vitro, Entero. cloacae HH 31254, read-out: MIC

Structure (SMILES) | ED50 ([3]; po, Kleb. pneumo. 4200, p.o.) [mg/kg] | ED50 ([3]; sc, Kleb. pneumo. 4200, s.c.) [mg/kg] | ED50 [4, 18] [mg/kg] | ED50 [4, 19] [mg/kg] | MIC [5] [mg/L] | MIC [6] [mg/L] | MIC [8] [mg/L] | MIC [9] [mg/L] | MIC [11, 20] [mg/L] | MIC [12] [mg/L] | MIC [13] [mg/L] | MIC [14, 21] [mg/L] | MIC [16, 22] [mg/L] | MIC [17] [mg/L] | MIC [1, 23] [mg/L] | MIC [2] [mg/L] | MIC [7, 24] [mg/L] | MIC [10, 25] [mg/L] | MIC ([11]; SK23390) [mg/L] | MIC [15, 26] [mg/L] | also measured
NC(=O)CCCn1nnnc1SCC1=C(C(=O)O)N2C(=O)C(NC(=O)[C@H](O)c3ccccc3)[C@H]2SC1 (stereo partly drawn) [XI, 7-D-Mandelamido-3-[1-(3-carbamoylpropyl)tetrazol-5-ylthiomethyl]-3-cephem-4-carboxylic acid] | 25 | 0.37 | > 50 | 1.56 | 0.8 (≈ 1.5 µM) | 0.4 (≈ 0.75 µM) | 50 (≈ 93.7 µM) | 3.1 (≈ 5.81 µM) | 3.1 (≈ 5.81 µM) | 0.8 (≈ 1.5 µM) | 0.4 (≈ 0.75 µM) | 50 (≈ 93.7 µM) | 0.8 (≈ 1.5 µM) | > 200 |  |  |  |  |  |  | MIC [1]: 3.1 mg/L (≈ 5.81 µM); MIC ([2]; read-out: MIC): 0.8 mg/L (≈ 1.5 µM); MIC [7]: 25 mg/L (≈ 46.9 µM); MIC ([10]; HH127): 3.1 mg/L (≈ 5.81 µM); MIC ([15]; HH31254): 3.1 mg/L (≈ 5.81 µM)
O=C(O)CCn1nnnc1SCC1=C(C(=O)O)N2C(=O)C(NC(=O)CSC(F)(F)F)[C@H]2SC1 (stereo partly shown) [XV, 7-Trifluoromethylmercaptoacetamido-3-[1-(2-carboxyethyl)tetrazol-5-ylthiomethyl]-3-cephem-4-carboxylic acid] | 46 | 1.12 | > 50 | 1.56 | 0.4 (≈ 0.757 µM) | 0.8 (≈ 1.51 µM) | 25 (≈ 47.3 µM) | 3.1 (≈ 5.87 µM) |  | > 200 |  | 50 (≈ 94.6 µM) | 0.8 (≈ 1.51 µM) |  | 6.3 (≈ 11.9 µM) | 0.4 (≈ 0.757 µM) | 200 (≈ 378 µM) | 1.6 (≈ 3.03 µM) | 0.8 (≈ 1.51 µM) | 0.8 (≈ 1.51 µM) | MIC ([13]; read-out: MIC): 0.8 mg/L (≈ 1.51 µM)
NC(=O)CCn1nnnc1SCC1=C(C(=O)O)N2C(=O)C(NC(=O)CSC(F)(F)F)[C@H]2SC1 (stereo partly shown) [XVI, 7-Trifluoromethylmercaptoacetamido-3-[1-(2-carbamoylethyl)tetrazol-5-ylthiomethyl]-3-cephem-4-carboxylic acid] |  | 0.54 | 25 | 0.78 | 0.4 (≈ 0.758 µM) | 0.2 (≈ 0.379 µM) | 6.3 (≈ 11.9 µM) | 1.6 (≈ 3.03 µM) |  | 12.5 (≈ 23.7 µM) | 0.4 (≈ 0.758 µM) |  | 0.8 (≈ 1.52 µM) | > 200 | 1.6 (≈ 3.03 µM) | 0.4 (≈ 0.758 µM) |  | 0.4 (≈ 0.758 µM) | 0.8 (≈ 1.52 µM) | 0.4 (≈ 0.758 µM) | MIC [14]: 12.5 mg/L (≈ 23.7 µM)
NC(=O)Cn1nnnc1SCC1=C(C(=O)O)N2C(=O)C(NC(=O)CSC(F)(F)F)[C@H]2SC1 (stereo partly shown) [XVII, 7-Trifluoromethylmercaptoacetamido-3-(1-carbamoylmethyltetrazol-5-ylthiomethyl)-3-cephem-4-carboxylic acid] | 15.5 | 0.78 | 6.25 | 0.28 | 0.4 (≈ 0.779 µM) | 0.2 (≈ 0.389 µM) | 12.5 (≈ 24.3 µM) | 3.1 (≈ 6.04 µM) |  | 200 (≈ 389 µM) | 0.4 (≈ 0.779 µM) | 25 (≈ 48.7 µM) | 0.8 (≈ 1.56 µM) |  | 1.6 (≈ 3.12 µM) | 0.4 (≈ 0.779 µM) | 100 (≈ 195 µM) | 0.4 (≈ 0.779 µM) | 0.4 (≈ 0.779 µM) | 0.8 (≈ 1.56 µM) | 
O=C(O)Cn1nnnc1SCC1=C(C(=O)O)N2C(=O)C(NC(=O)CSC(F)(F)F)[C@H]2SC1 (stereo partly shown) [XVIII, 7-Trifluoromethylmercaptoacetamido-3-(1-carboxymethyltetrazol-5-ylthiomethyl)-3-cephem-4-carboxylic acid] |  | 0.4 |  | 3.1 | 0.8 (≈ 1.55 µM) | 3 (≈ 5.83 µM) | 100 (≈ 194 µM) | 6 (≈ 11.7 µM) | 3 (≈ 5.83 µM) | 200 (≈ 389 µM) |  | 100 (≈ 194 µM) |  |  | 13 (≈ 25.3 µM) | 0.4 (≈ 0.777 µM) | > 200 | 3 (≈ 5.83 µM) |  | 3 (≈ 5.83 µM) | MIC ([13]; read-out: MIC): 0.8 mg/L (≈ 1.55 µM); MIC [16]: 0.4 mg/L (≈ 0.777 µM)
